The results in this text go back to patent US20070010446A1, “METHODS FOR TREATING INFLAMMATION USING THYROID STIMULATING HORMONE” (ZymoGenetics, Inc., priority 2003, published 2007).

In one data set the test system is thymus. Particulars: mouse, in vivo.
Data set [1] deals with C57BL/6 mice. As to the kind of experiment: LPS-induced mild endotoxemia mouse model, serum cytokines by ELISA. In kind it is in vivo. Conditions: treatment i.p. 1 hour prior, Dex […], TSH 2.0 mg/kg, Thyroxine 0.05 mg/kg; for TNFα (1 hr) +/− S.E.: serum 1 hour after 25 ug LPS i.p., PBS group 6990.8; for IL-6 (4 hr) +/− S.E.: serum 4 hours after 25 ug LPS i.p., PBS group 45.6. Here is the method:
The LPS-induced mild endotoxemia model is an in vivo model designed to mimic acute endotoxemia/sepsis by challenging mice with a low, non-lethal dose of bacterial endotoxin (lipopolysaccharide, LPS). Serum is collected at various timepoints (1-72 hours) after intraperitoneal LPS injection and analyzed for altered expression of a wide variety of pro- and anti-inflammatory cytokines and acute phase proteins that mediate the inflammatory response. The model provides a means to assess the potential anti-inflammatory effects of therapeutic candidates during a robust inflammatory response.
In this model, an initial experiment is run to determine the production of proinflammatory cytokines in response to an injection of LPS. For example, six-month old Balb/c (Charles River Laboratories, Wilmington, Mass.) female mice are injected with 25 μg LPS (Sigma) in sterile PBS intraperitoneally (i.p.). Serum samples are collected at 0, 1, 4, 8, 16, 24, 48 and 72 hours later, and are assayed for serum levels of inflammatory mediators, such as IL-1β, IL-6, TNFα, and IL-10. Commercially available ELISA kits (Biosource International, Camarillo, Calif.) can be used to deterime the serum levels. In this assay TNFα levels and IL-1β levels can be measured at 1 hour post-LPS injection, and IL-6, IL-10 and IL-10 can be measured at 4 hours post injection. From these inflammatory mediators, one or more is chosen as a representative biological marker(s) for the LPS model of mild endotoxemia.
Next, C57BL/6 mice (Charles River Laboratories; 5 mice/group) are treated i.p. with PBS, or the test compound in PBS 1 hour prior to LPS challenge. The mice are then challenged with 25 ug of LPS i.p. and are bled at 1 hour and 4 hours after LPS injection. The level of the representative biological marker(s) is analyzed by ELISA.
Thyroxine (0.05 mg/kg) and Dexamethasone (0.015 mg/kg) were run as negative and positive controls, respectively. […] This model can be optimized for dosage and choice of biological markers.

Data set [2] deals with C57BL/6 mice. Kind of data set: Delayed Type Hypersensitivity (DTH), OVA ear challenge. It counts as in vivo. Particulars: Expt 3 (n = 7), adrenalectomized (ADX) mice; treatment i.p. at challenge (d 7); Dex […], TSH 2.0 mg/kg.

With `C[C@@H]1C[C@H]2[C@@H]3CCC4=CC(=O)C=C[C@]4(C)[C@@]3(F)[C@@H](O)C[C@]2(C)[C@@]1(O)C(=O)CO` [Dex, Dexamethasone], the “thymic atrophy (in words)” value in the data set with thymus is given as “obvious thymic atrophy”. For the same compound, in the data set on C57BL/6 mice [1], the “TNFα (1 hr) +/− S.E.” value is 3798.4 ± 415.7 pg/mL and the “IL-6 (4 hr) +/− S.E.” value is 35.2 ± 2.8 ng/mL. In the data set on C57BL/6 mice [2], the “CHANGE IN EAR THICKNESS, LEFT EAR (PBS)” value is 0.07 +/− 0.61 ×10^−3 inch and the “CHANGE IN EAR THICKNESS, RIGHT EAR (OVA)” value is recorded as 3.71 +/− 0.64 ×10^−3 inch.

Turning to `N[C@@H](Cc1cc(I)c(Oc2cc(I)c(O)c(I)c2)c(I)c1)C(=O)O` [Thyroxine], in the data set with C57BL/6 mice [1], the “TNFα (1 hr) +/− S.E.” value came to 4289.5 ± 642.3 pg/mL and the “IL-6 (4 hr) +/− S.E.” value was found to be 37.1 ± 0.9 ng/mL.
